{
  "source": "patent EP0745595A1",
  "about": "“3-(3-Aryloxyphenyl)-1-(substituted methyl)-s-triazine-2,4,6-oxo or thiotrione herbicidal agents” (American Cyanamid Company, priority 1995, dated 1996)",
  "type_in_all_cases": "in vivo",
  "key": {"[1]": {"tested_on": "CYPERUS SEROTINUS, ROTTB.", "test": "Preemergence weed control under flooded paddy conditions, CYPSE (Flatsedge)", "conditions": "for CYPSE herbicidal rating: preemergence weeds, rated three to four weeks after treatment; for CYPSE: pre-weed", "summary_of_the_method": "(§1)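 Visual 0-9 score (stand, vigor, malformation, size, chlorosis, appearance vs untreated control) taken 3-4 wk after treatment. Test compounds were added into flood water (1.5-3 cm over silt loam) as 50/50 v/v aqueous/acetone, equivalent to about 0.5-0.063 kg/ha a.i.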"}, "[2]": {"tested_on": "GLYCINE MAX(L) MERR. CV. WILLIAMS", "test": "Postemergence herbicidal evaluation, GLXMAW (Soybean, Williams)", "design": "key to GLXMAW rating / Herbicidal effect rating, GLXMAW / GLXMAW: 0-9 visual rating scale vs untreated control", "summary_of_the_method": "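Herbicidal injury to Williams soybean was assessed after a postemergence spray of two-week-old seedlings grown in jiffy flats. Compounds were dispersed in an acetone/water (50/50) mixture with 0.5% TWEEN®20 surfactant and applied at 40 psi. After four to five weeks in the greenhouse, stand, vigor, malformation, size and chlorosis were compared against a control on a 0-9 scale, and results from replicate tests were averaged.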"}, "ZEA MAYS L.": {"tested_on": "ZEA MAYS L.", "test": "Preemergence herbicidal evaluation, ZEAMX (Corn, Field)", "summary_of_the_method": "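Preemergence herbicidal activity on field corn: seeds in potting soil were sown atop roughly one inch of soil in separate pint cups, treated, and grown under standard greenhouse care. Four to five weeks post-treatment, stand, vigor, malformation, size, chlorosis and overall appearance were compared with a control and scored 0-9.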"}, "[3]": {"tested_on": "ORYZA SATIVA, L. TEBONNET", "test": "Postemergence herbicidal evaluation, ORYSAT (Rice, Tebonnet)", "design": "key: 0-9 visual rating scale vs untreated control", "experimental": "In the tests, seedling plants are grown in jiffy flats for about two weeks. The test compounds are dispersed in 50/50 acetone/water mixtures containing 0.5% TWEEN®20, a polyoxyethylene sorbitan monolaurate surfactant of Atlas Chemical Industries, in sufficient quantities to provide the equivalent of about 0.125 kg to 0.500 kg per hectare of active compound when applied to the plants through a spray nozzle operating at 40 psi for a predetermined time. After spraying, the plants are placed on greenhouse benches and are cared for in the usual manner, commensurate with conventional greenhouse practices. From four to five weeks after treatment, the seedling plants are examined and rated according to the rating system set forth below. Where more than one test is involved for a given compound, the data are averaged.\nPlant species employed in these evaluations are reported by header abbreviation, common name and scientific name.\nResults of herbicide evaluation are expressed on a rating scale (0-9). The scale is based upon a visual observation of plant stand, vigor, malformation, size, chlorosis and overall plant appearance as compared with a control."}, "[4]": {"tested_on": "SETARIA VIRIDIS, (L) BEAU", "test": "Postemergence herbicidal evaluation, SETVI (Foxtail, Green)", "design": "key to SETVI rating / Herbicidal effect rating, SETVI / SETVI: 0-9 visual rating scale vs untreated control", "summary_of_the_method": "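Ratings (0-9) reflect visual stand, vigor, malformation, size and chlorosis compared with untreated plants, assessed 4-5 weeks after postemergence spraying. Treatment was applied to roughly two-week-old seedlings at about 0.125-0.500 kg/ha in acetone/water with 0.5% Tween 20; replicate tests were averaged.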"}, "[5]": {"tested_on": "ECHINOCHLOA ORYZOIDES (ARD.)FRITSCH", "test": "Preemergence weed control under flooded paddy conditions, ECHORC (Watergrass (Calif.))", "conditions": "pre-weed", "summary_of_the_method": "as §1"}, "[…], PRESL.": {"tested_on": "[…], PRESL.", "test": "Preemergence weed control under flooded paddy conditions, MOOVA (Monochoria)", "conditions": "pre-weed", "summary_of_the_method": "as §1"}, "SAGITTARIA PYGMAEA, L.": {"tested_on": "SAGITTARIA PYGMAEA, L.", "test": "Preemergence weed control under flooded paddy conditions, SAGPY (Arrowhead (Pygmaea))", "conditions": "pre-weed", "summary_of_the_method": "as §1"}, "[6]": {"tested_on": "GLYCINE MAX(L) MERR. CV. WILLIAMS", "test": "Preemergence herbicidal evaluation, GLXMAW (Soybean, Williams)", "summary_of_the_method": "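Injury scored visually (0–9; stand, vigor, malformation, size, chlorosis) versus untreated control, four to five weeks post-treatment. Application: aqueous acetone spray onto freshly planted soil cups, equivalent to about 0.125 to 0.50 kg/ha, plants then kept under standard greenhouse care.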"}},
  "data": [
    {"molecule": "COC(=O)Cn1c(=O)[nH]c(=O)n(-c2cc(Oc3ccc(C(F)(F)F)cc3Cl)ccc2[N+](=O)[O-])c1=O", "note": "[Compound 8, Methyl 3-{5-[(2-chloro-α,α,α-trifluoro-p-tolyl)oxy]-2-nitrophenyl}tetrahydro-2,4,6-trioxo-s-triazine-1(2H)-acetate]", "values": [
      {"measurement": "CYPSE herbicidal rating", "setting": "[1]; Rate 0.063 kg/ha", "result": 0.0},
      {"measurement": "CYPSE herbicidal rating", "setting": "[1]; Rate 0.125 kg/ha", "result": 0.0},
      {"measurement": "CYPSE herbicidal rating", "setting": "[1]; Rate 0.250 kg/ha", "result": 0.0}
    ]},
    {"molecule": "Cn1c(=O)[nH]c(=O)n(-c2cc(Oc3c(F)cc(C(F)(F)F)cc3Cl)ccc2[N+](=O)[O-])c1=O", "note": "[D, reference compound]", "values": [
      {"measurement": "GLXMAW", "setting": "[2]; Rate 0.008 kg/ha", "result": 2.5},
      {"measurement": "GLXMAW", "setting": "[2]; Rate 0.016 kg/ha", "result": 4.2},
      {"measurement": "GLXMAW", "setting": "[2]; Rate 0.031 kg/ha", "result": 4.5},
      {"measurement": "GLXMAW", "setting": "[2]; Rate 0.063 kg/ha", "result": 4.7},
      {"measurement": "GLXMAW", "setting": "[2]; Rate 0.125 kg/ha", "result": 5.5},
      {"measurement": "ZEAMX", "setting": "ZEA MAYS L.; Rate 0.031 kg/ha", "result": 0.0},
      {"measurement": "ZEAMX", "setting": "ZEA MAYS L.; Rate 0.063 kg/ha", "result": 0.0},
      {"measurement": "ZEAMX", "setting": "ZEA MAYS L.; Rate 0.125 kg/ha", "result": 0.0},
      {"measurement": "ZEAMX", "setting": "ZEA MAYS L.; Rate 0.250 kg/ha", "result": 0.0},
      {"measurement": "ORYSAT", "setting": "[3]; Rate 0.016 kg/ha", "result": 3.8},
      {"measurement": "ORYSAT", "setting": "[3]; Rate 0.031 kg/ha", "result": 4.3},
      {"measurement": "ORYSAT", "setting": "[3]; Rate 0.063 kg/ha", "result": 4.8},
      {"measurement": "ORYSAT", "setting": "[3]; Rate 0.125 kg/ha", "result": 5.3},
      {"measurement": "SETVI", "setting": "[4]; Rate 0.008 kg/ha", "result": 0.0},
      {"measurement": "SETVI", "setting": "[4]; Rate 0.016 kg/ha", "result": 1.0},
      {"measurement": "SETVI", "setting": "[4]; Rate 0.031 kg/ha", "result": 1.3},
      {"measurement": "SETVI", "setting": "[4]; Rate 0.063 kg/ha", "result": 1.3},
      {"measurement": "SETVI", "setting": "[4]; Rate 0.125 kg/ha", "result": 1.5},
      {"measurement": "ECHORC", "setting": "[5]; Rate 0.031 kg/ha", "result": 9.0},
      {"measurement": "ECHORC", "setting": "[5]; Rate 0.063 kg/ha", "result": 9.0},
      {"measurement": "ECHORC", "setting": "[5]; Rate 0.125 kg/ha", "result": 9.0},
      {"measurement": "ECHORC", "setting": "[5]; Rate 0.250 kg/ha", "result": 9.0}
    ]},
    {"molecule": "Cn1c(=O)[nH]c(=O)n(-c2cc(Oc3c(F)cc(C(F)(F)F)cc3Cl)ccc2F)c1=O", "note": "[C, reference compound]", "values": [
      {"measurement": "MOOVA", "setting": "[…], PRESL.; Rate 0.031 kg/ha", "result": 9.0},
      {"measurement": "MOOVA", "setting": "[…], PRESL.; Rate 0.063 kg/ha", "result": 9.0},
      {"measurement": "MOOVA", "setting": "[…], PRESL.; Rate 0.125 kg/ha", "result": 9.0},
      {"measurement": "MOOVA", "setting": "[…], PRESL.; Rate 0.250 kg/ha", "result": 9.0},
      {"measurement": "SAGPY", "setting": "SAGITTARIA PYGMAEA, L.; Rate 0.031 kg/ha", "result": 0.0},
      {"measurement": "SAGPY", "setting": "SAGITTARIA PYGMAEA, L.; Rate 0.063 kg/ha", "result": 0.0},
      {"measurement": "SAGPY", "setting": "SAGITTARIA PYGMAEA, L.; Rate 0.125 kg/ha", "result": 0.0},
      {"measurement": "SAGPY", "setting": "SAGITTARIA PYGMAEA, L.; Rate 0.250 kg/ha", "result": 0.0},
      {"measurement": "GLXMAW", "setting": "[6]; Rate 0.031 kg/ha", "result": 0.0},
      {"measurement": "GLXMAW", "setting": "[6]; Rate 0.063 kg/ha", "result": 0.0},
      {"measurement": "GLXMAW", "setting": "[6]; Rate 0.125 kg/ha", "result": 0.0},
      {"measurement": "GLXMAW", "setting": "[6]; Rate 0.250 kg/ha", "result": 0.0},
      {"measurement": "Herbicidal effect rating, GLXMAW", "setting": "[2]; 0.031 kg/ha", "result": 3.5},
      {"measurement": "Herbicidal effect rating, GLXMAW", "setting": "[2]; 0.063 kg/ha", "result": 4.5},
      {"measurement": "Herbicidal effect rating, GLXMAW", "setting": "[2]; 0.125 kg/ha", "result": 4.5},
      {"measurement": "Herbicidal effect rating, GLXMAW", "setting": "[2]; 0.250 kg/ha", "result": 5.0},
      {"measurement": "ZEAMX", "setting": "ZEA MAYS L.; Rate 0.031 kg/ha", "result": 0.0},
      {"measurement": "ZEAMX", "setting": "ZEA MAYS L.; Rate 0.063 kg/ha", "result": 0.0},
      {"measurement": "ZEAMX", "setting": "ZEA MAYS L.; Rate 0.125 kg/ha", "result": 0.0},
      {"measurement": "ZEAMX", "setting": "ZEA MAYS L.; Rate 0.250 kg/ha", "result": 0.0},
      {"measurement": "Herbicidal effect rating, ORYSAT", "setting": "[3]; 0.031 kg/ha", "result": 3.0},
      {"measurement": "Herbicidal effect rating, ORYSAT", "setting": "[3]; 0.063 kg/ha", "result": 3.5},
      {"measurement": "Herbicidal effect rating, ORYSAT", "setting": "[3]; 0.125 kg/ha", "result": 3.5},
      {"measurement": "Herbicidal effect rating, ORYSAT", "setting": "[3]; 0.250 kg/ha", "result": 3.5},
      {"measurement": "CYPSE", "setting": "[1]; Rate 0.031 kg/ha", "result": 0.0},
      {"measurement": "CYPSE", "setting": "[1]; Rate 0.063 kg/ha", "result": 0.0},
      {"measurement": "CYPSE", "setting": "[1]; Rate 0.125 kg/ha", "result": 0.0},
      {"measurement": "CYPSE", "setting": "[1]; Rate 0.250 kg/ha", "result": 0.0},
      {"measurement": "Herbicidal effect rating, SETVI", "setting": "[4]; 0.031 kg/ha", "result": 0.0},
      {"measurement": "Herbicidal effect rating, SETVI", "setting": "[4]; 0.063 kg/ha", "result": 0.0},
      {"measurement": "Herbicidal effect rating, SETVI", "setting": "[4]; 0.125 kg/ha", "result": 0.0},
      {"measurement": "Herbicidal effect rating, SETVI", "setting": "[4]; 0.250 kg/ha", "result": 1.0}
    ]}
  ]
}
